Laboratory results reported in ChEMBL document CHEMBL6177951, “Synthesis and anti-MRSA activity of quaternized small molecule antimicrobial peptide mimics based on norharmane” (Eur J Med Chem, 2025).
Activity calls are given as the source filed them. No cut-off for these calls is given here.

How the values were obtained:
Staphylococcus aureus [1] = experiment: Induction of morphological changes in methicillin-resistant Staphylococcus aureus assessed as appearance of holes in cells at 0.5 ug/ml incubated for 6 hrs by SEM analysis; assay type: functional, organism-based; conditions: dose 0.5 µg/ml
Calf thymus DNA [2] = experiment: Binding affinity to calf thymus DNA assessed as change in entropy at 3 uM by ITC assay; assay type: nucleic-acid assay; conditions: Bos taurus
Cell membrane [3] = experiment: Induction of cytoplasmic membrane depolarization in methicillin-resistant Staphylococcus aureus assessed as increase in fluorescence intensity by DiSC35 dye based microplate reader analysis; assay type: subcellular
Staphylococcus aureus [4] = experiment: Antibacterial activity against Staphylococcus aureus ATCC 33591 assessed as inhibition of bacterial growth at 1 to 2 times MIC measured after 24 hrs by growth kinetic assay; assay type: functional, organism-based
Staphylococcus aureus [5] = experiment: In vivo antibacterial activity against methicillin-resistant Staphylococcus aureus infected in female Kunming mouse skin infection model assessed as log reduction in bacterial load at 20 mg/kg measured after 48 hrs (reference value: 14.34 log10CFU/g); assay type: functional
Lipoteichoic acid = experiment: Displacement of BODIPY-TR-cadaverine from Staphylococcus aureus LTA assessed as increase in fluorescence intensity at 2 ug/ml incubated for 0.5 hrs by fluorescence based analysis relative to control; conditions: dose 2.0 µg/ml
[6] = Toxicity in female Kunming mouse assessed as pathological changes in skin tissue at 5 to 20 mg/kg, sc measured after 48 hrs by H and E staining based analysis; assay type: organism-based; conditions: in vivo, dose 5-20 mg/kg
Staphylococcus aureus [7] = experiment: Antibacterial activity against methicillin-resistant Staphylococcus aureus assessed as reduction in metabolic activity at 2 ug/ml incubated for 8 hrs by alamar blue staining based analysis relative to control; assay type: functional; design: scale not given: the % may be the effect or the level left; conditions: dose 2 µg/ml
Staphylococcus aureus [8] = experiment: Antibacterial activity against methicillin-resistant Staphylococcus aureus clinical isolate M-14 incubated for 14 hrs by two-fold serial dilution method; assay type: functional
Staphylococcus aureus [9] = experiment: Antibacterial activity against Staphylococcus aureus ATCC 33591 assessed as inhibition of bacterial growth at 0.5 times MIC measured at 0 to 12 hrs by growth kinetic assay; assay type: functional, organism-based; conditions: time 0-12 hrs
Calf thymus DNA [10] = experiment: Binding affinity to calf thymus DNA assessed as binding constant by ITC assay; assay type: nucleic-acid assay; conditions: Bos taurus
Staphylococcus aureus [11] = experiment: Antibacterial activity against methicillin-resistant Staphylococcus aureus incubated for 6 hrs in presence of 10 to 60% sheep plasma; assay type: functional, organism-based
Staphylococcus aureus [12] = experiment: Antibacterial activity against methicillin-resistant Staphylococcus aureus clinical isolate M-15 incubated for 14 hrs by two-fold serial dilution method; assay type: functional
L02 = experiment: Cytotoxicity against human L02 cells assessed as reduction in cell viability at 4 ug/ml incubated for 24 hrs by CCK-8 assay relative to control; assay type: toxicity, cell-based; conditions: l02, 24 h, at 4 µg/mL
[13] = Toxicity in female Kunming mouse assessed as pathological changes in kidney at 500 to 2000 mg/kg, sc measured after 7 days by H and E staining based analysis; assay type: organism-based; conditions: in vivo, 168 h, dose 500-2000 mg/kg, time 7 day
Staphylococcus aureus [14] = experiment: Antibacterial activity against methicillin-resistant Staphylococcus aureus clinical isolate M-17 incubated for 14 hrs by two-fold serial dilution method; assay type: functional
Staphylococcus aureus [15] = experiment: Antibacterial activity against methicillin-resistant Staphylococcus aureus clinical isolate M-20 incubated for 14 hrs by two-fold serial dilution method; assay type: functional
Staphylococcus aureus [16] = experiment: Induction of oxidative damage in methicillin-resistant Staphylococcus aureus assessed as reduction in SOD activity incubated for 8 hrs; assay type: functional, organism-based; conditions: dose 0.25-2 µg/ml
Staphylococcus aureus [17] = experiment: Antibacterial activity against methicillin-resistant Staphylococcus aureus assessed as increase MIC incubated for 6 hrs in presence of 70 to 100% sheep plasma; assay type: functional
[18] = Toxicity in female Kunming mouse assessed as inflammatory cell infiltration at 5 to 20 mg/kg, sc measured after 48 hrs by H and E staining based analysis; assay type: organism-based; conditions: in vivo, dose 5-20 mg/kg
Staphylococcus aureus [19] = experiment: In vivo antibacterial activity against methicillin-resistant Staphylococcus aureus infected in female Kunming mouse skin infection model assessed as appearance of smooth inside skin at 20 mg/kg measured after 48 hrs; assay type: functional, organism-based
Staphylococcus aureus [20] = experiment: Antibacterial activity against Staphylococcus aureus ATCC 25923 assessed as inhibition of bacterial growth incubated for 14 hrs by two-fold serial dilution method; assay type: functional
Staphylococcus aureus [21] = experiment: Induction of morphological changes in methicillin-resistant Staphylococcus aureus assessed as appearance of rough cell surface at 0.5 ug/ml incubated for 6 hrs by SEM analysis; assay type: functional, organism-based; conditions: dose 0.5 µg/ml
Staphylococcus aureus [22] = experiment: Antibacterial activity against methicillin-resistant Staphylococcus aureus ATCC 33591 assessed as inhibition of bacterial growth incubated for 14 hrs by two-fold serial dilution method; assay type: functional
Staphylococcus aureus [23] = experiment: Antibiofilm activity against methicillin-resistant Staphylococcus aureus assessed as inhibition of biofilm formation at 4 ug/ml incubated for 24 hrs by crystal violet staining based analysis relative to control; assay type: functional; design: scale not given: the % may be the effect or the level left; conditions: dose 4 µg/ml
Staphylococcus aureus [24] = experiment: Antibacterial activity against methicillin-resistant Staphylococcus aureus clinical isolate M-21 incubated for 14 hrs by two-fold serial dilution method; assay type: functional
Staphylococcus aureus [25] = experiment: Antibacterial activity against Staphylococcus aureus ATCC 33591 assessed as resistance development by measuring fold increase in MIC at 0.5 times MIC incubated for 8 hrs and measured after 15 passages; assay type: functional
Staphylococcus aureus [26] = experiment: Antibacterial activity against methicillin-resistant Staphylococcus aureus clinical isolate M-19 incubated for 14 hrs by two-fold serial dilution method; assay type: functional
Staphylococcus aureus [27] = experiment: Antibacterial activity against Staphylococcus aureus CMCC 26003 assessed as inhibition of bacterial growth incubated for 14 hrs by two-fold serial dilution method; assay type: functional
[28] = Toxicity in female Kunming mouse assessed as abnormality inside skin at 5 to 20 mg/kg, sc measured after 48 hrs; assay type: organism-based; conditions: in vivo, dose 5-20 mg/kg
Staphylococcus aureus [29] = experiment: In vivo antibacterial activity against methicillin-resistant Staphylococcus aureus infected in female Kunming mouse skin infection model assessed as recovery of dorsal surface at 5 to 20 mg/kg measured after 48 hrs; assay type: functional, organism-based; conditions: dose 5-20 mg/kg
Calf thymus DNA [30] = experiment: Binding affinity to calf thymus DNA assessed as change in enthalpy at 3 uM by ITC assay; assay type: nucleic-acid assay; conditions: Bos taurus
Staphylococcus aureus [31] = experiment: Antibacterial activity against methicillin-resistant Staphylococcus aureus assessed as reduction in LDH activity incubated for 8 hrs; assay type: functional, organism-based; conditions: dose 0.25-2 µg/ml
Staphylococcus aureus [32] = experiment: Antibacterial activity against methicillin-resistant Staphylococcus aureus assessed as change in cell surface zeta potential at 256 ug/ml incubated for 8 hrs; assay type: functional, organism-based; conditions: dose 256.0 µg/ml
[33] = Acute toxicity in female Kunming mouse assessed as aberrant behavior at 500 to 2000 mg/kg, sc measured after 7 days; assay type: organism-based; conditions: in vivo, 168 h, dose 500-2000 mg/kg, time 7 day
Staphylococcus aureus [34] = experiment: Antibacterial activity against methicillin-resistant Staphylococcus aureus clinical isolate M-18 incubated for 14 hrs by two-fold serial dilution method; assay type: functional
Staphylococcus aureus [35] = experiment: Induction of morphological changes in methicillin-resistant Staphylococcus aureus assessed as appearance of broken cells at 0.5 ug/ml incubated for 6 hrs by SEM analysis; assay type: functional, organism-based; conditions: dose 0.5 µg/ml
Calf thymus DNA [36] = experiment: Binding affinity to calf thymus DNA assessed as dissociation constant by ITC assay; assay type: nucleic-acid assay, Bos taurus
Staphylococcus aureus [37] = experiment: Induction of ROS generation in methicillin-resistant Staphylococcus aureus assessed as fold increase in fluorescence intensity at 2 ug/ml incubated for 8 hrs by DCFH-DA dye analysis; assay type: functional; conditions: dose 2 µg/ml
Cell membrane [38] = experiment: Induction of cell membrane integrity in methicillin-resistant Staphylococcus aureus assessed as appearance of blue and red fluorescence at 0.25 ug/ml incubated for 8 hrs by DAPI/PI staining based fluorescence microscopic analysis; assay type: subcellular; conditions: dose 0.25 µg/ml

C[n+]1ccc2c3ccccc3n(CCCCCCCCCCCn3c4ccccc4c4cc[n+](C)cc43)c2c1.[I-].[I-]
Activity (Staphylococcus aureus [1]): Active | deltaS (Calf thymus DNA [2]): 99.2 J/mol.K | Activity (Cell membrane [3]): Dose-dependent-effect | Activity (Staphylococcus aureus [4]): Active | Activity (Staphylococcus aureus [5]): 7.29 log10CFU/g | Activity (Lipoteichoic acid): 31.7% | Activity [6]: Non-toxic | Activity (Staphylococcus aureus [7]): 64.56% | MIC (Staphylococcus aureus [8]): 0.25 µg/mL | Activity (Staphylococcus aureus [9]): Active | K (Calf thymus DNA [10]): 2.21 10^5/M | Activity (Staphylococcus aureus [11]): Active | MIC (Staphylococcus aureus [12]): 0.5 µg/mL | Activity (L02): 71.86% | Activity [13]: Non-toxic | MIC (Staphylococcus aureus [14]): 0.5 µg/mL | MIC (Staphylococcus aureus [15]): 0.5 µg/mL | Activity (Staphylococcus aureus [16]): Dose-dependent-effect | MIC (Staphylococcus aureus [17]): 0.5 µg/mL | Activity [18]: Non-toxic | Activity (Staphylococcus aureus [19]): Active | MIC (Staphylococcus aureus [20]): 1 µg/mL | Activity (Staphylococcus aureus [21]): Active | MIC (Staphylococcus aureus [22]): 0.25 µg/mL | Activity (Staphylococcus aureus [23]): 98% | MIC (Staphylococcus aureus [24]): 1 µg/mL | fold change (FC) (Staphylococcus aureus [25]): 2 | MIC (Staphylococcus aureus [26]): 0.5 µg/mL | MIC (Staphylococcus aureus [27]): 0.25 µg/mL | Activity [28]: Non-toxic | Activity (Staphylococcus aureus [29]): Active | deltaH (Calf thymus DNA [30]): -0.223 kcal/mol | Activity (Staphylococcus aureus [31]): Dose-dependent-effect | Activity (Staphylococcus aureus [32]): Active | Activity [33]: Non-toxic | MIC (Staphylococcus aureus [34]): 0.5 µg/mL | Activity (Staphylococcus aureus [35]): Active | Kd (Calf thymus DNA [36]): 4.52 µM | fold change (FC) (Staphylococcus aureus [37]): 4.34 | Activity (Cell membrane [38]): Active
